Assay in all cases: NCI tumour cell line growth inhibition, 48 h
The subject of assay [1] is SK-MEL-28 melanoma.
Assay [2] deals with CAKI-1 renal.
Assay [3] relates to SW-620 colon.
Assay [4] concerns SN12C renal.
Assay [5] concerns CCRF-CEM leukemia.
Assay [6] relates to RPMI-8226 leukemia.
Assay [7] concerns HCT-15 colon.
The subject of assay [8] is DU-145 prostate.
The test system of assay [9] is NCI-H522 lung.

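In this assay, cells in 96-well plates receive the compound at five concentrations for 48 hours. Endpoints are linearly interpolated between the surrounding concentrations. Here, GI50 denotes the concentration required for 50% inhibition of growth. Definition used: TGI = concentration required for complete inhibition of growth.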

In the case of `Cc1nc2c(c(N3CCCc4ccccc43)n1)CCC2`, the GI50 in assay [1] is 11.7 µM; in assay [2], below 0.01 µM; in assay [3], below 0.01 µM; in assay [4], 0.0161 µM; in assay [5], below 0.01 µM; in assay [6], below 0.01 µM. For the same compound, the GI50 in assay [7] and in assay [8] was below 0.01 µM throughout. In addition, the TGI is above 100 µM in [1]; above 100 µM in [2]; above 100 µM in [3]; above 100 µM in assay [4]; above 100 µM in assay [5]; 3.47 µM in assay [6]. Besides, the TGI in [7] and in assay [8] was above 100 µM each time.
`N#CC12CCC1C1CCCCC12N1CCSCC1` (centres undefined): the TGI in assay [1], in assay [2], in [3], in assay [4], in [5] and in [6] was above 100 µM in each case. The TGI in assay [7] was above 100 µM.
Consider `O=C(O)C[C@@H](Cl)[C@H](NC(=O)OCc1ccccc1)C(=O)O`, for which the TGI in [1], in [2], in assay [3], in [4], in assay [5] and in assay [6] was above 100 µM throughout. The TGI in assay [7] and in assay [9] was above 100 µM each time.
For the compound `COc1ccc(/C=C2\CN(C(=O)C(Cl)Cl)C/C(=C\c3ccc(OC)cc3)C2=O)cc1`, the values for the GI50 in assay [3], in assay [5] and in assay [7] were 0.351 µM, 0.528 µM and 0.337 µM, respectively. The TGI in assay [3] was 1.78 µM; in assay [5] it was above 100 µM; in [7] it was 1.52 µM.
For the compound `CCC[CH2][Sn]([CH2]CCC)([O]c1cccc2cccnc12)[O]c1cccc2cccnc12`, the GI50 in [1] was 0.146 µM; in assay [2], 0.2 µM; in assay [3], 0.179 µM; in [4], 0.177 µM; in assay [5], 0.0317 µM; in assay [7], 0.167 µM. Besides, the TGI in assay [1] is 0.332 µM; in [2] it was 0.718 µM; in assay [3], 0.429 µM; in [4], 0.403 µM; in assay [5], 0.313 µM; in [7], 0.339 µM.
With `CCC(=O)N1C(=O)OCC1C(C)C` (centres undefined), the TGI in assay [2], in assay [3], in assay [4], in assay [5], in assay [6] and in assay [7] was above 100 µM throughout.
With `O=C1C(=O)N(c2ccc(Cl)cc2)C(=O)C(=O)C1c1nc2ccccc2o1`, the TGI in assay [1], in assay [2], in assay [3], in assay [4], in assay [5] and in assay [6] was above 100 µM each time. In addition, the TGI in assay [7] and in [9] was above 100 µM each time.
`O=S(=O)([O-])c1ccc(N=Cc2ccccc2[O-])cc1.O=S(=O)([O-])c1ccc(N=Cc2ccccc2[O-])cc1.[Co+2]`: the GI50 in assay [1] is 59.5 µM; in [3] it was above 100 µM; in [4], above 100 µM; in assay [5], 15.5 µM; in assay [6] it was 96.8 µM; in assay [7] it was above 100 µM. Further, the TGI in assay [1], in assay [3], in assay [4], in assay [5], in [6] and in assay [7] was above 100 µM in each case.
For the compound `COC(OC)c1cc2c(cc1C=O)OCO2`, the TGI in assay [1], in assay [2], in assay [3], in [4], in assay [5] and in [9] was above 100 µM throughout.
In the case of `C[C@]12CCC(=O)C(OC(=O)c3ccc([N+](=O)[O-])cc3)=C1CCC2=O`, the TGI in assay [1], in assay [2], in assay [3], in [4], in assay [5] and in assay [6] was above 100 µM throughout. The TGI in [7] and in assay [9] was above 100 µM each time.
As to `COc1ccc(/C(=N\NC(=O)NN)C(c2ccc(OC)cc2)C2(O)C(=O)Nc3c(Cl)cc(Cl)cc32)cc1` (centres undefined), the TGI in assay [1], in assay [3], in [4], in assay [5] and in assay [6] was above 100 µM each time.
`Cc1ccc(-c2nc3ccccc3c(=O)n2NCC2(O)OCC(O)C(O)C2O)cc1` (centres undefined): the TGI in assay [1], in assay [2], in assay [3], in [4], in [5] and in assay [6] was above 100 µM each time. For the same compound, the TGI in assay [7] and in assay [9] was above 100 µM throughout.
On to `N#CC(/C(CCC(=O)Nc1ccc(Cl)cc1)=N/NC(=O)c1cc2ccccc2cc1O)c1ccccc1` (centres undefined), for which the TGI in [1] was above 100 µM; in assay [3], above 100 µM; in assay [4], above 100 µM; in assay [5], 49.4 µM; in assay [6] it was above 100 µM.
On to `COC(=O)c1ccccc1N(C(=O)c1ccccc1)c1ccccc1C`, for which the TGI in assay [1] was above 100 µM; in assay [2], above 100 µM; in assay [3], above 100 µM; in assay [4], above 100 µM; in assay [5], 83.5 µM; in assay [7] it was above 100 µM. In addition, in assay [9], the TGI was found to be 86.1 µM.
As for `Cc1n[nH]c(=S)n(C)c1=S`, the TGI in assay [1], in assay [3], in assay [4], in assay [5], in [6] and in assay [7] was above 100 µM each time. For the same compound, in assay [9], the TGI is above 100 µM.
With `COc1cc(/C=C(\NC(=O)c2ccccc2)c2nc3ccc4c(c3[nH]2)C(=O)c2ccccc2C4=O)cc(OC)c1OC`, the TGI in [1], in [2], in assay [3], in [4], in assay [5] and in [6] was above 100 µM each time. Further, the TGI in assay [7] and in [9] was above 100 µM in each case.

The values are drawn from PubChem BioAssay (NCI).
